From the supplement of paper PMC8149375
“And” between values parts separate entries of the source, which are not always exact repeats. Equal entries are not always repeated.

Columns and labels:
Settings in all cases: treatment: drug + dasatinib (fixed dose, not stated); 5 days
UO-31 [1] = test: GI50 of drug in presence of dasatinib; higher = less potent
Protocol: (§1)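 Primary HTS combination arm: 8 RCC cell lines treated with 8 doses (up to 10 uM) of each library drug plus a fixed dose of dasatinib (dose not stated) for 5 days; viability read by CellTiter-Glo and normalised to DMSO. GI50 was fitted with XLfit, AUC is the area under the dose-response curve, and minimum viability is the lowest fraction of DMSO viability across doses.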

786-O [2] = test: as above
Protocol: as §1

769-P [3] = test: as above
Protocol: as §1

TK-10 [4] = test: as above
Protocol: as §1

A498 [5] = test: as above
Protocol: as §1

ACHN [6] = test: as above
Protocol: as §1

SN12C [7] = test: as above
Protocol: as §1

CAKI-1 [8] = test: as above
Protocol: as §1

UO-31 [9] = test: AUC of dose-response viability curve, drug + dasatinib, normalised to DMSO (arbitrary (AUC of normalised viability)); higher = less growth inhibition
Protocol: as §1

786-O [10] = test: as above
Protocol: as §1

769-P [11] = test: as above
Protocol: as §1

TK-10 [12] = test: as above
Protocol: as §1

A498 [13] = test: as above
Protocol: as §1

ACHN [14] = test: as above
Protocol: as §1

SN12C [15] = test: as above
Protocol: as §1

CAKI-1 [16] = test: as above
Protocol: as §1

UO-31 [17] = test: minimum viability across doses, drug + dasatinib, relative to DMSO (fraction); higher = less growth inhibition
Protocol: as §1

786-O [18] = test: as above
Protocol: as §1

769-P [19] = test: as above
Protocol: as §1

TK-10 [20] = test: as above
Protocol: as §1

A498 [21] = test: as above
Protocol: as §1

ACHN [22] = test: as above
Protocol: as §1

SN12C [23] = test: as above
Protocol: as §1

CAKI-1 [24] = test: as above
Protocol: as §1

SMILES	GI50 of drug (UO-31 [1])	GI50 of drug (786-O [2])	GI50 of drug (769-P [3])	GI50 of drug (TK-10 [4])	GI50 of drug (A498 [5])	GI50 of drug (ACHN [6])	GI50 of drug (SN12C [7])	GI50 of drug (CAKI-1 [8])	AUC of dose-response viability curve (UO-31 [9])	AUC of dose-response viability curve (786-O [10])	AUC of dose-response viability curve (769-P [11])	AUC of dose-response viability curve (TK-10 [12])	AUC of dose-response viability curve (A498 [13])	AUC of dose-response viability curve (ACHN [14])	AUC of dose-response viability curve (SN12C [15])	AUC of dose-response viability curve (CAKI-1 [16])	minimum viability across doses (UO-31 [17])	minimum viability across doses (786-O [18])	minimum viability across doses (769-P [19])	minimum viability across doses (TK-10 [20])	minimum viability across doses (A498 [21])	minimum viability across doses (ACHN [22])	minimum viability across doses (SN12C [23])	minimum viability across doses (CAKI-1 [24])
O=C1NC(=O)C(=Cc2ccc(-c3ccc(F)cc3)o2)S1 (stereo in doubt) + Cc1nc(Nc2ncc(C(=O)Nc3c(C)cccc3Cl)s2)cc(N2CCN(CCO)CC2)n1 [dasatinib]	> 10 µM	> 10 µM	> 10 µM	> 10 µM	> 10 µM	> 10 µM	> 10 µM	> 10 µM	3.43	2.24	2.42	2.37	3.83	2.28	2.4	2.46	0.657	0.519	0.594	0.633	0.903	0.607	0.655	0.638
CCCCOc1c(C(=O)c2c(F)cc(C)cc2F)cnc2[nH]ncc12 + Cc1nc(Nc2ncc(C(=O)Nc3c(C)cccc3Cl)s2)cc(N2CCN(CCO)CC2)n1 [dasatinib]	2.65 µM	0.0252 µM	> 10 µM	0.322 µM	> 10 µM	0.015 µM	> 10 µM	2.58 µM	3.38	1.09	2.26	1.89	3.45	1.18	2.47	1.94	0.182	0.0144	0.52	0.377	0.795	0.135	0.565	0.378
N#Cc1c(O)c2c(-c3ccc(-c4ccccc4O)cc3)csc2[nH]c1=O + Cc1nc(Nc2ncc(C(=O)Nc3c(C)cccc3Cl)s2)cc(N2CCN(CCO)CC2)n1 [dasatinib]	> 10 µM	> 10 µM	> 10 µM	> 10 µM	> 10 µM	> 10 µM	> 10 µM	> 10 µM	4.43	2.63	2.56	2.78	3.43	2.25	2.35	2.38	1.02	0.6	0.683	0.705	0.86	0.595	0.634	0.655
CO[C@@H](C(=O)N1Cc2[nH]nc(NC(=O)c3ccc(N4CCN(C)CC4)cc3)c2C1)c1ccccc1 + Cc1nc(Nc2ncc(C(=O)Nc3c(C)cccc3Cl)s2)cc(N2CCN(CCO)CC2)n1 [dasatinib]	3.12 µM and 3.92 µM	0.184 µM and 0.231 µM	2.95 µM and 3.1 µM	1.56 µM and 1.03 µM	1.31 µM and 2.72 µM	0.0182 µM and 0.153 µM	0.491 µM and 0.366 µM	0.17 µM and 0.198 µM	2.67 and 3.57	1.57 and 1.49	2.12 and 2.33	2.19 and 2.06	2.44 and 2.82	1.37 and 1.42	1.95 and 1.86	1.46	0.0249 and 0.0141		0.346 and 0.337	0.146 and 0.131	0.36 and 0.384	0.0933 and 0.0842	0.159 and 0.145	0.0301 and 0.0221
CN(C)c1ccc(-c2nc3c(N4CCN(CC(=O)Nc5nccs5)CC4)c(Cl)cnc3[nH]2)cc1 + Cc1nc(Nc2ncc(C(=O)Nc3c(C)cccc3Cl)s2)cc(N2CCN(CCO)CC2)n1 [dasatinib]	2.84 µM	0.953 µM	1.95 µM	4.03 µM	3.35 µM	0.162 µM	0.976 µM	0.334 µM	3.26	1.91	2.19	2.34	2.88	1.53	2.03	1.69	0.107	0.26	0.307	0.487	0.281	0.145	0.2	0.0775
Cc1cc(CN2CCN(c3c(Br)cnc4[nH]c(-c5ccc(N6CCN(C)CC6)cc5)nc34)CC2)no1 + Cc1nc(Nc2ncc(C(=O)Nc3c(C)cccc3Cl)s2)cc(N2CCN(CCO)CC2)n1 [dasatinib]	2.45 µM	0.232 µM	0.504 µM	1.82 µM	2.01 µM	0.141 µM	0.626 µM	0.231 µM	3.64	1.52	1.76	2.24	3.1	1.5	1.78	1.57	0.0168	0.00361	0.019	0.198	0.0164	0.0106	0.00484	0.00433
Cc1c(NC(=O)OC[C@@H]2COCCN2)cn2ncnc(Nc3ccc4c(cnn4Cc4cccc(F)c4)c3)c12.Cl + Cc1nc(Nc2ncc(C(=O)Nc3c(C)cccc3Cl)s2)cc(N2CCN(CCO)CC2)n1 [dasatinib]	5.46 µM	7.25 µM	0.652 µM	1.14 µM	> 10 µM	0.23 µM	> 10 µM	2.43 µM	2.98	2.62	2.01	2.31	3.28	1.84	2.47	2.24	0.251	0.444	0.157	0.19	0.858	0.249	0.662	0.441
Cc1cc2c(F)c(Oc3ncnn4cc(OC[C@@H](C)O)c(C)c34)ccc2[nH]1 + Cc1nc(Nc2ncc(C(=O)Nc3c(C)cccc3Cl)s2)cc(N2CCN(CCO)CC2)n1 [dasatinib]	> 10 µM	> 10 µM	> 10 µM	> 10 µM	> 10 µM	1.04 µM	> 10 µM	6.47 µM	3.43	2.65	2.59	2.68	3.38	1.8	2.39	2.3	0.528	0.656	0.682	0.693	0.789	0.343	0.621	0.179
Cc1cc2c(F)c(Oc3ncnn4cc(OC[C@@H](C)OC(=O)[C@H](C)N)c(C)c34)ccc2[nH]1 + Cc1nc(Nc2ncc(C(=O)Nc3c(C)cccc3Cl)s2)cc(N2CCN(CCO)CC2)n1 [dasatinib]	9.86 µM	> 10 µM	> 10 µM	> 10 µM	> 10 µM	1.05 µM	> 10 µM	7.6 µM	3.27	2.48	2.41	2.69	3.16	1.89	2.47	2.59	0.457	0.504	0.617	0.674	0.733	0.316	0.605	0.431
C[C@@H]1COC(Nc2ccc3ncnc(Nc4ccc(OCc5nccs5)c(Cl)c4)c3c2)=N1 + Cc1nc(Nc2ncc(C(=O)Nc3c(C)cccc3Cl)s2)cc(N2CCN(CCO)CC2)n1 [dasatinib]	> 10 µM	> 10 µM	0.267 µM	0.614 µM	> 10 µM	0.0964 µM	> 10 µM	3.55 µM	3.53	2.05	1.87	2.03	4.08	1.62	2.36	2.16	0.679	0.49	0.18	0.318	0.988	0.286	0.638	0.318
O=C1NC(=O)/C(=C/c2ccc3c(c2)OC(F)(F)O3)S1 + Cc1nc(Nc2ncc(C(=O)Nc3c(C)cccc3Cl)s2)cc(N2CCN(CCO)CC2)n1 [dasatinib]	> 10 µM	> 10 µM	> 10 µM	> 10 µM	> 10 µM	> 10 µM	> 10 µM	> 10 µM	4.77	2.32	2.51	2.52	3.79	2.11	2.34	2.42	1.28	0.543	0.679	0.655	0.925	0.538	0.645	0.634
CN(C)Cc1cccc(N/C(=C2\C(=O)Nc3cc(C(=O)N(C)C)ccc32)c2ccccc2)c1 + Cc1nc(Nc2ncc(C(=O)Nc3c(C)cccc3Cl)s2)cc(N2CCN(CCO)CC2)n1 [dasatinib]	7.14 µM	3.74 µM	> 10 µM	5.62 µM	9.88 µM	0.631 µM	2.48 µM	1.12 µM	3.62	2.19	2.43	2.49	3.5	1.61	2.35	2.09	0.0229	0.348	0.561	0.386	0.473	0.0657	0.229	0.0645
Cc1n[nH]c2ccc(-c3cncc(OC[C@@H](N)Cc4ccccc4)c3)cc12 + Cc1nc(Nc2ncc(C(=O)Nc3c(C)cccc3Cl)s2)cc(N2CCN(CCO)CC2)n1 [dasatinib]	0.984 µM	0.656 µM	1.05 µM	1.13 µM	1.26 µM	0.0857 µM	1.53 µM	0.225 µM	1.97	1.77	1.98	2.16	2.92	1.42	1.9	1.57	0.00975	0.0069	0.00989	0.166	0.012	0.00362	0.0087	0.0702
Nc1nccc(Oc2ccc(NC(=O)c3c[nH]cc(-c4ccc(F)cc4)c3=O)cc2F)c1Cl + Cc1nc(Nc2ncc(C(=O)Nc3c(C)cccc3Cl)s2)cc(N2CCN(CCO)CC2)n1 [dasatinib]	> 10 µM	7.6 µM	5.58 µM	> 10 µM	> 10 µM	5.54 µM	> 10 µM	4.03 µM	4.48	2.28	2.29	2.52	3.3	2.2	2.34	2.03	0.717	0.44	0.349	0.56	0.617	0.395	0.559	0.323
NC1(Cc2ccc(Cl)cc2)CCN(c2ncnc3[nH]ccc23)CC1 + Cc1nc(Nc2ncc(C(=O)Nc3c(C)cccc3Cl)s2)cc(N2CCN(CCO)CC2)n1 [dasatinib]	3.23 µM	0.353 µM	5.14 µM	2.13 µM	8.07 µM	1.48 µM	4.47 µM	2.55 µM	3.84	1.97	2.5	2.38	3.16	2.04	2.36	2.19	0.0115	0.00351	0.323	0.207	0.401	0.165	0.356	0.202
